According to BigSolDB 2.1:

CCCCCOC(=O)Nc1nc(=O)n([C@@H]2O[C@H](C)[C@@H](O)[C@H]2O)cc1F
solubility (mole fraction) (in 2-ethylhexanol, 278.02 K): 0.0011 | solubility (mole fraction) (in 2-ethylhexanol, 282.93 K): 0.0013 | solubility (mole fraction) (in 2-ethylhexanol, 287.88 K): 0.0019 | solubility (mole fraction) (in 2-ethylhexanol, 292.57 K): 0.0027 | solubility (mole fraction) (in 2-ethylhexanol, 297.38 K): 0.0036 | solubility (mole fraction) (in 2-ethylhexanol, 302.24 K): 0.005 | solubility (mole fraction) (in 2-ethylhexanol, 307.13 K): 0.0069 | solubility (mole fraction) (in 2-ethylhexanol, 312.04 K): 0.0096 | solubility (mole fraction) (in 2-ethylhexanol, 316.73 K): 0.0125 | solubility (mole fraction) (in 2-ethylhexanol, 321.76 K): 0.0173 | solubility (mole fraction) (in 2-octanol, 278.04 K): 0.001 | solubility (mole fraction) (in 2-octanol, 282.95 K): 0.0014 | solubility (mole fraction) (in 2-octanol, 287.9 K): 0.0018 | solubility (mole fraction) (in 2-octanol, 292.55 K): 0.0025 | solubility (mole fraction) (in 2-octanol, 298.45 K): 0.0036 | solubility (mole fraction) (in 2-octanol, 302.3 K): 0.0047 | solubility (mole fraction) (in 2-octanol, 307.15 K): 0.0064 | solubility (mole fraction) (in 2-octanol, 312.05 K): 0.0087 | solubility (mole fraction) (in 2-octanol, 317.75 K): 0.0116 | solubility (mole fraction) (in 2-octanol, 322.2 K): 0.0151 | solubility (mole fraction) (in ethanol, 278.25 K): 0.0099 | solubility (mole fraction) (in ethanol, 282.86 K): 0.0123 | solubility (mole fraction) (in ethanol, 287.85 K): 0.017 | solubility (mole fraction) (in ethanol, 292.84 K): 0.0247 | solubility (mole fraction) (in ethanol, 297.75 K): 0.0353 | solubility (mole fraction) (in ethanol, 302.55 K): 0.048 | solubility (mole fraction) (in ethanol, 307.25 K): 0.0676 | solubility (mole fraction) (in ethanol, 312.14 K): 0.0933 | solubility (mole fraction) (in ethanol, 317.35 K): 0.127 | solubility (mole fraction) (in ethanol, 322.13 K): 0.166 | solubility (mole fraction) (in ethylene glycol, 278.65 K): 0.01 | solubility (mole fraction) (in ethylene glycol, 283.15 K): 0.0125 | solubility (mole fraction) (in ethylene glycol, 287.95 K): 0.017 | solubility (mole fraction) (in ethylene glycol, 293 K): 0.021 | solubility (mole fraction) (in ethylene glycol, 297.95 K): 0.0267 | solubility (mole fraction) (in ethylene glycol, 302.95 K): 0.0348 | solubility (mole fraction) (in ethylene glycol, 307.65 K): 0.0437 | solubility (mole fraction) (in ethylene glycol, 312.1 K): 0.0539 | solubility (mole fraction) (in ethylene glycol, 316.85 K): 0.0661 | solubility (mole fraction) (in ethylene glycol, 322.25 K): 0.0877 | solubility (mole fraction) (in isobutanol, 278.26 K): 0.0012 | solubility (mole fraction) (in isobutanol, 283.15 K): 0.0018 | solubility (mole fraction) (in isobutanol, 288.1 K): 0.0029 | solubility (mole fraction) (in isobutanol, 293.38 K): 0.0046 | solubility (mole fraction) (in isobutanol, 298.02 K): 0.007 | solubility (mole fraction) (in isobutanol, 302.85 K): 0.0107 | solubility (mole fraction) (in isobutanol, 307.4 K): 0.0156 | solubility (mole fraction) (in isobutanol, 312.25 K): 0.0232 | solubility (mole fraction) (in isobutanol, 316.95 K): 0.0336 | solubility (mole fraction) (in isobutanol, 321.95 K): 0.0492 | solubility (mole fraction) (in isopentanol, 278.25 K): 0.0027 | solubility (mole fraction) (in isopentanol, 282.97 K): 0.0038 | solubility (mole fraction) (in isopentanol, 288.76 K): 0.0057 | solubility (mole fraction) (in isopentanol, 292.64 K): 0.0074 | solubility (mole fraction) (in isopentanol, 297.33 K): 0.0102 | solubility (mole fraction) (in isopentanol, 302.27 K): 0.0141 | solubility (mole fraction) (in isopentanol, 307.06 K): 0.0193 | solubility (mole fraction) (in isopentanol, 312.04 K): 0.0267 | solubility (mole fraction) (in isopentanol, 316.78 K): 0.0361 | solubility (mole fraction) (in isopentanol, 321.47 K): 0.0485 | solubility (mole fraction) (in isopropanol, 277.98 K): 0.0011 | solubility (mole fraction) (in isopropanol, 283.49 K): 0.0016 | solubility (mole fraction) (in isopropanol, 288.07 K): 0.0024 | solubility (mole fraction) (in isopropanol, 293.16 K): 0.0037 | solubility (mole fraction) (in isopropanol, 297.34 K): 0.0053 | solubility (mole fraction) (in isopropanol, 302.29 K): 0.0079 | solubility (mole fraction) (in isopropanol, 307.07 K): 0.0115 | solubility (mole fraction) (in isopropanol, 312.14 K): 0.017 | solubility (mole fraction) (in isopropanol, 316.88 K): 0.0241 | solubility (mole fraction) (in isopropanol, 321.47 K): 0.034 | solubility (mole fraction) (in n-butanol, 278.1 K): 0.0021 | solubility (mole fraction) (in n-butanol, 283.03 K): 0.003 | solubility (mole fraction) (in n-butanol, 288.02 K): 0.0045 | solubility (mole fraction) (in n-butanol, 293.53 K): 0.007 | solubility (mole fraction) (in n-butanol, 298 K): 0.0106 | solubility (mole fraction) (in n-butanol, 303.15 K): 0.016 | solubility (mole fraction) (in n-butanol, 308.25 K): 0.0239 | solubility (mole fraction) (in n-butanol, 312.35 K): 0.0351 | solubility (mole fraction) (in n-butanol, 317.4 K): 0.051 | solubility (mole fraction) (in n-butanol, 322.49 K): 0.077 | solubility (mole fraction) (in n-heptanol, 278 K): 0.0018 | solubility (mole fraction) (in n-heptanol, 283.15 K): 0.0025 | solubility (mole fraction) (in n-heptanol, 288.33 K): 0.0036 | solubility (mole fraction) (in n-heptanol, 292.53 K): 0.0047 | solubility (mole fraction) (in n-heptanol, 297.63 K): 0.0065 | solubility (mole fraction) (in n-heptanol, 303.3 K): 0.0092 | solubility (mole fraction) (in n-heptanol, 308.35 K): 0.0126 | solubility (mole fraction) (in n-heptanol, 313.25 K): 0.017 | solubility (mole fraction) (in n-heptanol, 318.05 K): 0.0226 | solubility (mole fraction) (in n-heptanol, 322.85 K): 0.0299 | solubility (mole fraction) (in n-hexanol, 278.1 K): 0.0018 | solubility (mole fraction) (in n-hexanol, 284.33 K): 0.0029 | solubility (mole fraction) (in n-hexanol, 287.97 K): 0.0038 | solubility (mole fraction) (in n-hexanol, 293.85 K): 0.006 | solubility (mole fraction) (in n-hexanol, 297.6 K): 0.008 | solubility (mole fraction) (in n-hexanol, 303.55 K): 0.0125 | solubility (mole fraction) (in n-hexanol, 308.55 K): 0.0173 | solubility (mole fraction) (in n-hexanol, 313.15 K): 0.0241 | solubility (mole fraction) (in n-hexanol, 317.75 K): 0.0333 | solubility (mole fraction) (in n-hexanol, 322.25 K): 0.0461 | solubility (mole fraction) (in n-octanol, 278.65 K): 0.0022 | solubility (mole fraction) (in n-octanol, 283 K): 0.003 | solubility (mole fraction) (in n-octanol, 287.98 K): 0.004 | solubility (mole fraction) (in n-octanol, 292.95 K): 0.0055 | solubility (mole fraction) (in n-octanol, 298.35 K): 0.0076 | solubility (mole fraction) (in n-octanol, 302.94 K): 0.01 | solubility (mole fraction) (in n-octanol, 307.5 K): 0.0131 | solubility (mole fraction) (in n-octanol, 312.35 K): 0.0173 | solubility (mole fraction) (in n-octanol, 317.05 K): 0.0226 | solubility (mole fraction) (in n-octanol, 322.05 K): 0.0307 | solubility (mole fraction) (in n-pentanol, 278.2 K): 0.002 | solubility (mole fraction) (in n-pentanol, 282.97 K): 0.0031 | solubility (mole fraction) (in n-pentanol, 288.26 K): 0.0051 | solubility (mole fraction) (in n-pentanol, 292.64 K): 0.0071 | solubility (mole fraction) (in n-pentanol, 297.33 K): 0.0101 | solubility (mole fraction) (in n-pentanol, 302.27 K): 0.0146 | solubility (mole fraction) (in n-pentanol, 307.06 K): 0.0205 | solubility (mole fraction) (in n-pentanol, 312.04 K): 0.0292 | solubility (mole fraction) (in n-pentanol, 316.78 K): 0.0404 | solubility (mole fraction) (in n-pentanol, 321.47 K): 0.0555 | solubility (mole fraction) (in n-propanol, 278 K): 0.0024 | solubility (mole fraction) (in n-propanol, 283.06 K): 0.0037 | solubility (mole fraction) (in n-propanol, 287.98 K): 0.0055 | solubility (mole fraction) (in n-propanol, 292.87 K): 0.0088 | solubility (mole fraction) (in n-propanol, 297.33 K): 0.0132 | solubility (mole fraction) (in n-propanol, 302.29 K): 0.0205 | solubility (mole fraction) (in n-propanol, 307.07 K): 0.0309 | solubility (mole fraction) (in n-propanol, 312.14 K): 0.0471 | solubility (mole fraction) (in n-propanol, 316.88 K): 0.0687 | solubility (mole fraction) (in n-propanol, 321.47 K): 0.0997 | solubility (mole fraction) (in sec-butanol, 278.15 K): 0.001 | solubility (mole fraction) (in sec-butanol, 283.17 K): 0.0016 | solubility (mole fraction) (in sec-butanol, 288.13 K): 0.0026 | solubility (mole fraction) (in sec-butanol, 293.35 K): 0.0043 | solubility (mole fraction) (in sec-butanol, 298.44 K): 0.0065 | solubility (mole fraction) (in sec-butanol, 302.9 K): 0.0093 | solubility (mole fraction) (in sec-butanol, 307.65 K): 0.014 | solubility (mole fraction) (in sec-butanol, 312.44 K): 0.0207 | solubility (mole fraction) (in sec-butanol, 317.25 K): 0.0301 | solubility (mole fraction) (in sec-butanol, 321.9 K): 0.0428 | solubility (mole fraction) (in tert-butanol, 299.65 K): 0.0078 | solubility (mole fraction) (in tert-butanol, 302.75 K): 0.0096 | solubility (mole fraction) (in tert-butanol, 307.43 K): 0.0139 | solubility (mole fraction) (in tert-butanol, 312.2 K): 0.0199 | solubility (mole fraction) (in tert-butanol, 317.04 K): 0.0294 | solubility (mole fraction) (in tert-butanol, 321.65 K): 0.0423 | solubility (mole fraction) (in water, 278.25 K): 0.0009 | solubility (mole fraction) (in water, 283.2 K): 0.001 | solubility (mole fraction) (in water, 288.3 K): 0.001 | solubility (mole fraction) (in water, 293.25 K): 0.0011 | solubility (mole fraction) (in water, 298.25 K): 0.0012 | solubility (mole fraction) (in water, 302.8 K): 0.0013 | solubility (mole fraction) (in water, 308 K): 0.0014 | solubility (mole fraction) (in water, 312.95 K): 0.0015 | solubility (mole fraction) (in water, 317.65 K): 0.0016 | solubility (mole fraction) (in water, 322.75 K): 0.0017
